pIC50: −log10 of the molar value. Bridge positions count the residues as written; N and C are the ends. Peptide text beside a SMILES is read from it.
Columns and labels:
[1] = tested on: thapsigargin-induced IFN-g production in human whole blood; assay type: cell-based; conditions: read-out: Analogue Activity (IC50) WB/IFNg
[2] = tested on: thapsigargin-induced IL-2 production in human whole blood; conditions: read-out: Analogue Activity (IC50) WB/IL-2
human Kv1.3 = human Kv1.3 (Homo sapiens, UniProt P22001); assay type: cell-based; design: expressed in transfected cells
human Kv1.3, sequence (P22001 whole entry): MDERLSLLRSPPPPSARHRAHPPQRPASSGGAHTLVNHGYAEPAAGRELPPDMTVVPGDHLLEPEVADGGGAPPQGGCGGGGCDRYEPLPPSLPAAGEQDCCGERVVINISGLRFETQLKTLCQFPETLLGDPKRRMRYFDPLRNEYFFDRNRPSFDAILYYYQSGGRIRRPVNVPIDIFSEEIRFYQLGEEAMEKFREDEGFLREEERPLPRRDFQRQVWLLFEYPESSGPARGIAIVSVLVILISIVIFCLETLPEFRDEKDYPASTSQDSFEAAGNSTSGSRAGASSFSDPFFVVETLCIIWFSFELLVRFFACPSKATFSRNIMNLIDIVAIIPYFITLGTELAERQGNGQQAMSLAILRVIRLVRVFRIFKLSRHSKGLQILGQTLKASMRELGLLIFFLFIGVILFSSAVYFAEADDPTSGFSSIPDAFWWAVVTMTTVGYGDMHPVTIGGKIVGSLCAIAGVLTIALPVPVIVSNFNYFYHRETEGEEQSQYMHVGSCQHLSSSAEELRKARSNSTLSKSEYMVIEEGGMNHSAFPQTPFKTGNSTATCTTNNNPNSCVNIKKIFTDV

SMILES: CC[C@H](C)[C@@H]1NC(=O)[C@H](CCCCN)NC(=O)[C@@H](NC(=O)[C@H](CCCCN)NC(=O)[C@@H](NC(=O)[C@H](CC(N)=O)NC(=O)[C@@H](NC(=O)[C@@H](NC(=O)[C@@H](NC(=O)CN)C(C)C)[C@@H](C)CC)[C@@H](C)CC)C(C)C)CSSC[C@@H]2NC(=O)[C@H](CCCCN)NC(=O)CNC(=O)[C@H](Cc3ccccc3)NC(=O)[C@H](CCCNC(=N)N)NC(=O)[C@H](CCSC)NC(=O)CNC(=O)[C@H](C)NC(=O)[C@H](CCCCN)NC(=O)[C@H](CCCCN)NC(=O)[C@@H]3CSSC[C@@H](C(=O)N[C@H](C(=O)N4CCC[C@H]4C(=O)N[C@@H](CCCCN)C(=O)O)[C@@H](C)O)NC(=O)[C@H](C)NC(=O)[C@H](CSSC[C@H](NC(=O)[C@H](CCC(N)=O)NC(=O)[C@H](CCCNC(=N)N)NC(=O)[C@H](CO)NC1=O)C(=O)N[C@@H](CC(C)C)C(=O)N[C@@H](CCC(=O)O)C(=O)N1CCC[C@H]1C(=O)N3)NC(=O)[C@H](CCCCN)NC(=O)CNC(=O)[C@H](CC(N)=O)NC(=O)[C@H](CCSC)NC2=O [H34A] (H-GVIINVKCKISRQCLEPCKKAGMRFGKCMNGKCACTPK-OH; disulfide 8-28, 14-33, 18-35)
- pIC50 [1]: 10.24
- pIC50 [2]: 10.14
- Kv1.3 Selectivity (= Kv1.1/Kv.3 IC50) (human Kv1.3): 797

SMILES: CC[C@H](C)[C@@H]1NC(=O)[C@H](CCCCN)NC(=O)[C@@H](NC(=O)[C@H](CCCCN)NC(=O)[C@@H](NC(=O)[C@H](CC(N)=O)NC(=O)[C@@H](NC(=O)[C@@H](NC(=O)[C@@H](NC(=O)CN)C(C)C)[C@@H](C)CC)[C@@H](C)CC)C(C)C)CSSC[C@@H]2NC(=O)[C@H](CCCCN)NC(=O)CNC(=O)[C@H](Cc3ccccc3)NC(=O)[C@H](CCCNC(=N)N)NC(=O)[C@H](CCSC)NC(=O)CNC(=O)[C@H](C)NC(=O)[C@H](CCCCN)NC(=O)[C@H](CCCCN)NC(=O)[C@@H]3CSSC[C@@H](C(=O)N[C@@H](CCC(=O)O)C(=O)N4CCC[C@H]4C(=O)N[C@@H](CCCCN)C(=O)O)NC(=O)[C@H](Cc4c[nH]cn4)NC(=O)[C@H](CSSC[C@H](NC(=O)[C@H](CCC(N)=O)NC(=O)[C@H](CCCNC(=N)N)NC(=O)[C@H](CO)NC1=O)C(=O)N[C@@H](CC(C)C)C(=O)N[C@@H](CCC(=O)O)C(=O)N1CCC[C@H]1C(=O)N3)NC(=O)[C@H](CCCCN)NC(=O)CNC(=O)[C@H](CC(N)=O)NC(=O)[C@H](CCSC)NC2=O [T36E] (H-GVIINVKCKISRQCLEPCKKAGMRFGKCMNGKCHCEPK-OH; disulfide 8-28, 14-33, 18-35)
- pIC50 [1]: 8.62
- pIC50 [2]: 8.76
- Kv1.3 Selectivity (= Kv1.1/Kv.3 IC50) (human Kv1.3): 44

SMILES: CC[C@H](C)[C@@H]1NC(=O)[C@H](CCCCN)NC(=O)[C@@H](NC(=O)[C@H](CCCCN)NC(=O)[C@@H](NC(=O)[C@H](CC(N)=O)NC(=O)[C@@H](NC(=O)[C@@H](NC(=O)[C@@H](NC(=O)CN)C(C)C)[C@@H](C)CC)[C@@H](C)CC)C(C)C)CSSC[C@@H]2NC(=O)[C@H](CCCCN)NC(=O)CNC(=O)[C@H](Cc3ccccc3)NC(=O)[C@H](CCCNC(=N)N)NC(=O)[C@H](CCSC)NC(=O)CNC(=O)[C@H](C)NC(=O)[C@H](CCCCN)NC(=O)[C@H](CCCCN)NC(=O)[C@@H]3CSSC[C@@H](C(=O)N[C@H](C(=O)N4CCC[C@H]4C(=O)N[C@@H](CCCCN)C(=O)O)[C@@H](C)O)NC(=O)[C@H](Cc4c[nH]cn4)NC(=O)[C@H](CSSC[C@H](NC(=O)[C@H](CCC(N)=O)NC(=O)[C@H](CCCNC(=N)N)NC(=O)[C@H](CO)NC1=O)C(=O)N[C@@H](CC(C)C)C(=O)N[C@@H](CCC(=O)O)C(=O)N1CCC[C@H]1C(=O)N3)NC(=O)[C@H](CCCCN)NC(=O)CNC(=O)[C@H](C)NC(=O)[C@H](CCSC)NC2=O [N30A] (H-GVIINVKCKISRQCLEPCKKAGMRFGKCMAGKCHCTPK-OH; disulfide 8-28, 14-33, 18-35)
- pIC50 [1]: 9.20
- pIC50 [2]: 9.01
- Kv1.3 Selectivity (= Kv1.1/Kv.3 IC50) (human Kv1.3): 14

SMILES: CC[C@H](C)[C@@H]1NC(=O)[C@H](CCCCN)NC(=O)[C@@H](NC(=O)[C@H](CCCCN)NC(=O)[C@@H](NC(=O)[C@H](CC(N)=O)NC(=O)[C@@H](NC(=O)[C@@H](NC(=O)[C@@H](NC(=O)CN)C(C)C)[C@@H](C)CC)[C@@H](C)CC)C(C)C)CSSC[C@@H]2NC(=O)[C@H](CCCCN)NC(=O)CNC(=O)[C@H](Cc3ccccc3)NC(=O)[C@H](CCCNC(=N)N)NC(=O)[C@H](CCSC)NC(=O)CNC(=O)[C@H](C)NC(=O)[C@H](CCCCN)NC(=O)[C@H](CCCCN)NC(=O)[C@@H]3CSSC[C@@H](C(=O)N[C@H](C(=O)N4CCC[C@H]4C(=O)N[C@@H](CCCCN)C(=O)O)[C@@H](C)O)NC(=O)[C@H](Cc4c[nH]cn4)NC(=O)[C@H](CSSC[C@H](NC(=O)[C@H](CCC(N)=O)NC(=O)[C@H](CCCNC(=N)N)NC(=O)[C@H](CCCNC(=N)N)NC1=O)C(=O)N[C@@H](CC(C)C)C(=O)N[C@@H](CCC(=O)O)C(=O)N1CCC[C@H]1C(=O)N3)NC(=O)[C@H](CCCCN)NC(=O)CNC(=O)[C@H](CC(N)=O)NC(=O)[C@H](CCSC)NC2=O [S11R] (H-GVIINVKCKIRRQCLEPCKKAGMRFGKCMNGKCHCTPK-OH; disulfide 8-28, 14-33, 18-35)
- pIC50 [1]: 8.39
- pIC50 [2]: 8.67
- Kv1.3 Selectivity (= Kv1.1/Kv.3 IC50) (human Kv1.3): 228

SMILES: CC[C@H](C)[C@@H]1NC(=O)[C@H](CCCCN)NC(=O)[C@@H](NC(=O)[C@H](CCCCN)NC(=O)[C@@H](NC(=O)[C@H](CC(N)=O)NC(=O)[C@@H](NC(=O)[C@@H](NC(=O)[C@@H](NC(=O)CN)C(C)C)[C@@H](C)CC)[C@@H](C)CC)C(C)C)CSSC[C@@H]2NC(=O)[C@H](CCCCN)NC(=O)CNC(=O)[C@H](Cc3ccccc3)NC(=O)[C@H](CCCNC(=N)N)NC(=O)[C@H](CCSC)NC(=O)CNC(=O)[C@H](C)NC(=O)[C@H](CCCCN)NC(=O)[C@H](CCCCN)NC(=O)[C@@H]3CSSC[C@@H](C(=O)N[C@H](C(=O)N4CCC[C@H]4C(=O)N[C@@H](CCCCN)C(=O)O)[C@@H](C)O)NC(=O)[C@H](Cc4c[nH]cn4)NC(=O)[C@H](CSSC[C@H](NC(=O)[C@H](CCC(N)=O)NC(=O)[C@H](CCCNC(=N)N)NC(=O)[C@H](CO)NC1=O)C(=O)N[C@@H](CC(C)C)C(=O)N[C@@H](CCC(=O)O)C(=O)N1CCC[C@H]1C(=O)N3)NC(=O)[C@H](CCCCN)NC(=O)CNC(=O)[C@H](CC(N)=O)NC(=O)[C@H](CCCNC(=N)N)NC2=O [M29R] (H-GVIINVKCKISRQCLEPCKKAGMRFGKCRNGKCHCTPK-OH; disulfide 8-28, 14-33, 18-35)
- pIC50 [1]: 8.11
- pIC50 [2]: 7.93
- Kv1.3 Selectivity (= Kv1.1/Kv.3 IC50) (human Kv1.3): 30

SMILES: CC[C@H](C)[C@@H]1NC(=O)[C@H](CCCCN)NC(=O)[C@@H](NC(=O)[C@H](CCCCN)NC(=O)[C@@H](NC(=O)[C@H](CC(N)=O)NC(=O)[C@@H](NC(=O)[C@@H](NC(=O)[C@@H](NC(=O)CN)C(C)C)[C@@H](C)CC)[C@@H](C)CC)C(C)C)CSSC[C@@H]2NC(=O)[C@H](CCCCN)NC(=O)CNC(=O)[C@H](Cc3ccccc3)NC(=O)[C@H](CCCNC(=N)N)NC(=O)[C@H](CCSC)NC(=O)CNC(=O)[C@H](C)NC(=O)[C@H](CCCCN)NC(=O)[C@H](CCCCN)NC(=O)[C@@H]3CSSC[C@@H](C(=O)N[C@H](C(=O)N4CCC[C@H]4C(=O)N[C@@H](CCCCN)C(=O)O)[C@@H](C)O)NC(=O)[C@H](CCC(=O)O)NC(=O)[C@H](CSSC[C@H](NC(=O)[C@H](CCC(N)=O)NC(=O)[C@H](CCCNC(=N)N)NC(=O)[C@H](CO)NC1=O)C(=O)N[C@@H](CC(C)C)C(=O)N[C@@H](CCC(=O)O)C(=O)N1CCC[C@H]1C(=O)N3)NC(=O)[C@H](CCCCN)NC(=O)CNC(=O)[C@H](CC(N)=O)NC(=O)[C@H](CCSC)NC2=O [H34E] (H-GVIINVKCKISRQCLEPCKKAGMRFGKCMNGKCECTPK-OH; disulfide 8-28, 14-33, 18-35)
- pIC50 [1]: 8.62
- pIC50 [2]: 8.79
- Kv1.3 Selectivity (= Kv1.1/Kv.3 IC50) (human Kv1.3): 30
